# Assay results from patent US20220041606A1, “POSITIVE ALLOSTERIC MODULATORS OF THE MUSCARINIC ACETYLCHOLINE RECEPTOR M1” (Vanderbilt University, priority 2020, published 2022).
# Assays:
# human mAChR M1 [1] = target: T1, human mAChR M1 (Homo sapiens, UniProt P11229); assay: mAChR M1 cell-based functional assay (calcium mobilization), PAM activity: increase in the EC20 acetylcholine response; conditions: CHO-K1 cells expressing hM1; potentiation of EC20 acetylcholine response
# T1 construct: host or cells: CHO-K1 cells (ATCC), stably transfected using Lipofectamine2000
# T1 sequence (P11229 1-460): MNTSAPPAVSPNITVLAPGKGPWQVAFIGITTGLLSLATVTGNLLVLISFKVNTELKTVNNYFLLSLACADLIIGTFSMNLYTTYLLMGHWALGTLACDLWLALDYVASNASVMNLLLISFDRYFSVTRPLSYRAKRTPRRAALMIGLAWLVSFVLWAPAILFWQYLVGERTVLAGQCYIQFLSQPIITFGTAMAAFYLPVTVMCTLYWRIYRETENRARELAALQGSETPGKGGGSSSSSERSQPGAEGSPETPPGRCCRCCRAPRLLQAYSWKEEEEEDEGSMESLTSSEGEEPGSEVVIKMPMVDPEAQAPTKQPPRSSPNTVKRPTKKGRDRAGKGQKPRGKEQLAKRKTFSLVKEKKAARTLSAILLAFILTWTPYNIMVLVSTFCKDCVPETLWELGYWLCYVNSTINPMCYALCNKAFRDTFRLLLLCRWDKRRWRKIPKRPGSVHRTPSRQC
# Procedure, shortened: (§1)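 CHO-K1 cells stably expressing hM1, loaded with Fluo-4 AM; calcium flux read on FDSS 6000. Compound (11-point, 1:3 CRC) added at 4 s, EC20 acetylcholine at 144 s, EC80 at 230 s; agonism from response to compound alone, PAM from increase in EC20 response; Emax relative to acetylcholine maximum, four-parameter fit.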
# human mAChR M1 [2] = target: T1, human mAChR M1; assay: mAChR M1 cell-based functional assay (calcium mobilization), agonist activity upon compound addition; conditions: CHO-K1 cells expressing hM1; for EC50: compound alone, before acetylcholine addition; for Emax: relative to the maximum for acetylcholine
# Procedure, shortened: as §1
SMILES,EC50 (human mAChR M1 [1]) [µM],Emax (human mAChR M1 [1]) [%],EC50 (human mAChR M1 [2]) [µM],Emax (human mAChR M1 [2]) [%]
"Cn1cc(-c2ccc(Cn3cc(C(=O)N[C@H]4CCCC[C@@H]4O)c4nccn4c3=O)c(F)c2)cn1 [Compound B6, 6-(2-fluoro-4-(1-methyl-1H-pyrazol-4-yl)benzyl)-N-((1S,2S)-2-hydroxycyclohexyl)-5-oxo-5,6-dihydroimidazo[1,2-c]pyrimidine-8-carboxamide]",0.037,74,1.54,63
"CC[C@H](C)[C@@H](CO)NC(=O)c1cn(Cc2c(F)cc(-c3cccc4nn(C)cc34)cc2F)c(=O)c2nccnc12 [Compound A76, 6-(2,6-difluoro-4-(2-methyl-2H-indazol-4-yl)benzyl)-N-((2S,3S)-1-hydroxy-3-methylpentan-2-yl)-5-oxo-5,6-dihydropyrido[3,4-b]pyrazine-8-carboxamide]",4.33,53,> 10,< 5
"Cn1ccc(-c2ccc(Cn3cc(C(=O)N[C@H]4CCC[C@@H]4O)c4nccn4c3=O)c(F)c2)n1 [Compound B3, 6-(2-fluoro-4-(1-methyl-1H-pyrazol-3-yl)benzyl)-N-((1S,2S)-2-hydroxycyclopentyl)-5-oxo-5,6-dihydroimidazo[1,2-c]pyrimidine-8-carboxamide]",0.54,67,,33
"Cn1cc2c(-c3cc(F)c(Cn4cc(C(=O)N[C@H]5CCOC[C@@H]5O)c5occc5c4=O)c(F)c3)cccc2n1 [Compound D18, 5-(2,6-Difluoro-4-(2-methyl-2H-indazol-4-yl)benzyl)-N-((3R,4S)-3-hydroxytetrahydro-2H-pyran-4-yl)-4-oxo-4,5-dihydrofuro[3,2-c]pyridine-7-carboxamide]",0.28,85,2.27,11
"COc1cc(-c2cc(F)c(Cn3cc(C(=O)N[C@H]4CCOC[C@@H]4O)c4ncccc4c3=O)c(F)c2)ccc1Cl [Compound A39, 6-((4′-chloro-3,5-difluoro-3′-methoxy-[1,1′-biphenyl]-4-yl)methyl)-N-((3R,4S)-3-hydroxytetrahydro-2H-pyran-4-yl)-5-oxo-5,6-dihydro-1,6-naphthyridine-8-carboxamide]",≥ 10,41,> 10,< 5
"Cn1cc(-c2ccc(Cn3cc(C(=O)N[C@H]4CCCCC[C@@H]4O)c4occc4c3=O)c(F)c2)cn1 [Compound D16, 5-(2-fluoro-4-(1-methyl-1H-pyrazol-4-yl)benzyl)-N-((1S,2S)-2-hydroxycycloheptyl)-4-oxo-4,5-dihydrofuro[3,2-c]pyridine-7-carboxamide]",2.02,75,> 10,8
"Cn1cc(-c2ccc(Cn3cc(C(=O)N[C@H]4CCOC[C@@H]4O)c4ncccc4c3=O)cc2)cn1 [Compound A58, N-((3R,4S)-3-hydroxytetrahydro-2H-pyran-4-yl)-6-(4-(1-methyl-1H-pyrazol-4-yl)benzyl)-5-oxo-5,6-dihydro-1,6-naphthyridine-8-carboxamide]",0.37,68,5.27,40
"Cn1ccc(-c2ccc(Cn3cc(C(=O)NC4CCOC(C)(C)C4)c4occc4c3=O)c(F)c2)n1 (centres unmarked) [Compound D11, N-(2,2-dimethyltetrahydro-2H-pyran-4-yl)-5-(2-fluoro-4-(1-methyl-1H-pyrazol-3-yl)benzyl)-4-oxo-4,5-dihydrofuro[3,2-c]pyridine-7-carboxamide]",> 10,24,> 10,< 5
"Cn1cc2c(-c3cc(F)c(Cn4cc(C(=O)NC5CCOCC5)c5occc5c4=O)c(F)c3)cccc2n1 [Compound D23, 5-(2,6-difluoro-4-(2-methyl-2H-indazol-4-yl)benzyl)-4-oxo-N-(tetrahydro-2H-pyran-4-yl)-4,5-dihydrofuro[3,2-c]pyridine-7-carboxamide]",4.12,64,> 10,< 5
"Cn1cc(-c2ccc(Cn3cc(C(=O)N[C@H]4CCC[C@@H]4O)c4nccnc4c3=O)c(F)c2)cn1 [Compound A79, 6-(2-fluoro-4-(1-methyl-1H-pyrazol-4-yl)benzyl)-N-((1S,2S)-2-hydroxycyclopentyl)-5-oxo-5,6-dihydropyrido[3,4-b]pyrazine-8-carboxamide]",≥ 10,51,> 10,< 5
"Cn1cc(-c2ccc(Cn3cc(C(=O)N[C@@H]4CC[C@H]4O)c4nccn4c3=O)c(F)c2)cn1 [Compound B8, 6-(2-fluoro-4-(1-methyl-1H-pyrazol-4-yl)benzyl)-N-((1R,2R)-2-hydroxycyclobutyl)-5-oxo-5,6-dihydroimidazo[1,2-c]pyrimidine-8-carboxamide]",2,72,,29
"Cn1cc(-c2ccc(Cn3cc(C(=O)N[C@H]4CCOC[C@@H]4O)c4nccnc4c3=O)c(F)c2)cn1 [Compound A77, 6-(2-fluoro-4-(1-methyl-1H-pyrazol-4-yl)benzyl)-N-((3R,4S)-3-hydroxytetrahydro-2H-pyran-4-yl)-5-oxo-5,6-dihydropyrido[3,4-b]pyrazine-8-carboxamide]",4.21,72,,18
"Cn1cc(-c2ccc(Cn3cc(C(=O)N[C@H]4CCOC[C@@H]4O)c4ncncc4c3=O)c(F)c2)cn1 [Compound A90, 6-(2-fluoro-4-(1-methyl-1H-pyrazol-4-yl)benzyl)-N-((3R,4S)-3-hydroxytetrahydro-2H-pyran-4-yl)-5-oxo-5,6-dihydropyrido[4,3-d]pyrimidine-8-carboxamide]",≥ 10,47,> 10,< 5
"Cn1cc2c(-c3cc(F)c(Cn4cc(C(=O)N[C@H]5CCCC[C@@H]5O)c5sccc5c4=O)c(F)c3)cccc2n1 [Compound D31, 5-(2,6-difluoro-4-(2-methyl-2H-indazol-4-yl)benzyl)-N-((1S,2S)-2-hydroxycyclohexyl)-4-oxo-4,5-dihydrothieno[3,2-c]pyridine-7-carboxamide]",7.98,54,> 10,< 5
"O=C(N[C@H]1CCC[C@@H]1O)c1cn(Cc2ccc(-n3cccn3)cc2)c(=O)n2ccnc12 [Compound B14, 6-(4-(1H-pyrazol-1-yl)benzyl)-N-((1S,2S)-2-hydroxycyclopentyl)-5-oxo-5,6-dihydroimidazo[1,2-c]pyrimidine-8-carboxamide]",1.33,70,,28
"Cn1cc(-c2ccc(Cn3cc(C(=O)N[C@@H]4CC[C@H]4O)c4occc4c3=O)c(F)c2)cn1 (stereo in doubt) [Compound D15, 5-(2-fluoro-4-(1-methyl-1H-pyrazol-4-yl)benzyl)-N-((1R,2R)-2-hydroxycyclobutyl)-4-oxo-4,5-dihydrofuro[3,2-c]pyridine-7-carboxamide]",> 10,29,> 10,< 5
"Cc1cc(C)cc(-c2cc(F)c(Cn3cc(C(=O)N[C@H]4CCOC[C@@H]4O)c4ncccc4c3=O)c(F)c2)c1 [Compound A32, 6-((3,5-difluoro-3′,5′-dimethyl-[1,1′-biphenyl]-4-yl)methyl)-N-((3R,4S)-3-hydroxytetrahydro-2H-pyran-4-yl)-5-oxo-5,6-dihydro-1,6-naphthyridine-8-carboxamide]",2.24,70,> 10,< 5
"Cn1cc(-c2ccc(Cn3cc(C(=O)N[C@H]4CCOC[C@@H]4O)c4nccn4c3=O)c(F)c2)cn1 [Compound B5, 6-(2-fluoro-4-(1-methyl-1H-pyrazol-4-yl)benzyl)-N-((3R,4S)-3-hydroxytetrahydro-2H-pyran-4-yl)-5-oxo-5,6-dihydroimidazo[1,2-c]pyrimidine-8-carboxamide]",0.046,68,0.15,62
"Cn1cc(-c2ccc(Cn3cc(C(=O)NCC(C)(C)O)c4nccnc4c3=O)c(F)c2)cn1 [Compound A80, 6-(2-fluoro-4-(1-methyl-1H-pyrazol-4-yl)benzyl)-N-(2-hydroxy-2-methylpropyl)-5-oxo-5,6-dihydropyrido[3,4-b]pyrazine-8-carboxamide]",≥ 10,30,> 10,< 5
"Cn1cc(-c2ccc(Cn3cc(C(=O)N[C@H]4CCCC[C@@H]4O)c4ncncc4c3=O)c(F)c2)cn1 [Compound A89, 6-(2-fluoro-4-(1-methyl-1H-pyrazol-4-yl)benzyl)-N-((1S,2S)-2-hydroxycyclohexyl)-5-oxo-5,6-dihydropyrido[4,3-d]pyrimidine-8-carboxamide]",≥ 10,51,> 10,< 5
"Cn1cc2c(-c3cc(F)c(Cn4cc(C(=O)N[C@H]5CCC[C@@H]5O)c5sccc5c4=O)c(F)c3)cccc2n1 [Compound D32, 5-(2,6-difluoro-4-(2-methyl-2H-indazol-4-yl)benzyl)-N-((1S,2S)-2-hydroxycyclopentyl)-4-oxo-4,5-dihydrothieno[3,2-c]pyridine-7-carboxamide]",7.73,40,> 10,< 5
